Patent US10457682B2, “Small molecules that bind MR1” (OREGON HEALTH & SCIENCE UNIVERSITY, priority 2016, dated 2019)
Entries after “also recorded” stand apart in the source; their conditions may differ. Read-outs that look alike come from different tables or passages of the source.

Experiments:
hpMR1 = hpMR1 (UniProt C1ITJ8+Q95460); details: tandem mass spectrometry; hpMR1-bac, +EC, +MS
Experimental: MR1 expressed in cells infected with two distinct microbes recognized by MR1Ts, E. coli and M. smegmatis, were analyzed by flow cytometry, ELISPOT assay, and mass spectrometry.
The presence and relative abundance of known MR1T ligands was assessed.
To further explore the MR1 ligandome, all ligands eluted from hpMR1-bac, +EC, and +MS were evaluated using LCMS. Fold increase was calculated for each ion/ligand in either hpMR1+MS or +EC compared to all other samples and plotted on volcano plots (FIG. 2A).
Global Natural Products Social Molecular Networking (GNPS) was used to assist in the identification of these novel ligands.

MR1T cell clone D426 G11 [1] = details: literature (Harriff 2016; Eckle 2014); cited from earlier work
MR1 = MR1 (Homo sapiens, UniProt Q95460); test: Binding of small molecule ligands to MR1
Text: 6,7-dimethyl-5-deazalumazine (DZ) is a synthetic compound designed based on the structure and activity of FO and other known mycobacterial ligands for MR1. […] Photolumazines I and III are small molecule secondary metabolites produced by bacteria.
Binding can be detected by any procedure known to one skilled in the art, such as by physical or functional properties including cellular properties. Binding can also be detected by visualization of a label (such as a fluorescent label) conjugated to one of the molecules.
Disclosed herein is work reflecting the diversity of ligands bound by MR1 in the context of infection with different microbes. MR1 ligand diversity is detected by MR1T cells, as MR1 tetramers loaded with multiple bacterial ligands were broadly recognized by MR1T clones with distinct TCR arrangements and by PBMC from a panel of donors. […] While previous work has only identified a few riboflavin metabolites as activating MR1Ts, our results establishes that MR1 samples the broader microbial metabolome similar to how conventional MHC molecules sample the microbial peptidome and CD1 molecules sample microbial lipids and glycolipids.

MR1T clones = test: Ability of synthetic ligands to stimulate MR1T clones; type: cell-based, human
Experimental: (§1) To determine whether riboflavin, FO, PLI, and PLIII were antigens, they were tested for their ability to stimulate MR1T clones. […] (FIGS. 4A, 4B). […] To determine whether riboflavin or FO are also antagonistic, antigen presenting cells (APC) were pre-loaded with riboflavin or FO and then tested for their ability to present antigens from M. smegmatis supernatant (Msm-sup) to MR1Ts. […] PLI and PLIII were each tested for their ability to stimulate two MR1T clones with distinct TCRs.
(§2) FIGS. 4A, 4B, 4C, 4D: MR1T cell responses to synthetic ligands. A-B) MR1T cell clone D426 G11 responses to BEAS-2B cells incubated with FO (A, 10 μM, 30 μM, or 100 μM), or Riboflavin (B, 7.8 μM-500 μM) prior to addition of M. smegmatis supernatant (Msm-s) or PHA. C) MR1 cell clone D481 C7 responses to DC incubated with synthetic PLI, PLIII, RL-6,7,-diMe (DMRL), or RL-6-Me-7-OH (HMRL), at 1.56μM-200μM, or M. smegmatis (Msm), M. smegmatis supernatant (Msm-s), or PHA. D) Panel of MR1T cell clones or an HLA-B45-restricted T cell clone (D466 A10) incubated with 100 μM PLI, PLIII, DMRL, or HMRL.

MR1T cell clone D426 G11 [2] = test: Blocking of MR1T clone response to M. smegmatis supernatant after pre-loading antigen presenting cells; type: cell-based, human; details: for blocking of MR1T clone response to Msm-sup (MAIT cell activation): APC (BEAS-2B) pre-loaded with FO 10-100 μM or riboflavin 7.8-500 μM, then M. smegmatis supernatant
Experimental: as §1, §2

MR1T clone D481_C7 = test: MR1T cell clone D481 C7 responses to DC incubated with synthetic ligands; type: cell-based, human; details: for response of clone D481_C7: 100 μM ligand (FIG. 4D); for IFN-γ response of clone D481_C7: DC incubated with ligand at 1.56 μM-200 μM (FIG. 4C top)
Experimental: as §1
(§3) Given the striking differences in response between D481_C7 and D426_G11, we postulated that discrete TCR usage could be associated with ligand discrimination. To test this, an expanded panel of TCR diverse MR1T clones was tested for their ability to recognize each antigen. Every clone responded robustly to APC infected with M. smegmatis (FIG. 4D). […] In contrast, the D481_C7 responded to RL-6-Me-7-OH as well as RL-6,7-diMe, PLI, and PLIII. Because TRAV1-2 negative cells were stained with the hpMR1+EC tetramer, we also tested the ability of a recently described TRAV12-2 MR1T cell clone to respond to these ligands.
as §2

MR1T clone D426_G11 = test: MR1T cell clone D426_G11 responses to synthetic ligands; type: cell-based, human; details: FIG. 4C bottom
Experimental: as §1, §2

[3] = tested on: D481_F12 and D481_A9 MR1T cell clones; test: D481_F12 and D481_A9 MR1T cell clone responses to synthetic ligands; type: cell-based, human; details: 100 μM ligand (FIG. 4D)
Experimental: as §3, §2

[4] = tested on: D462_E4 TRAV12-2 MR1T cell clone; test: TRAV12-2 MR1T cell clone D462_E4 responses to synthetic ligands; type: cell-based, human; details: 100 μM ligand (FIG. 4D)
Experimental: as §3, §2

Chain of hpMR1 (Q95460 23-201 limits assumed): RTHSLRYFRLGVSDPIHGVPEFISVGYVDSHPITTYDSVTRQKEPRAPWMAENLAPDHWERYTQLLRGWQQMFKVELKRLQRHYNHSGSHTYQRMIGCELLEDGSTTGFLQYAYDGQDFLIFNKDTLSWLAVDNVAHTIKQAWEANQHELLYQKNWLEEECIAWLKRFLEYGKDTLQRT
Chain of hpMR1 (C1ITJ8 198-289 limits assumed): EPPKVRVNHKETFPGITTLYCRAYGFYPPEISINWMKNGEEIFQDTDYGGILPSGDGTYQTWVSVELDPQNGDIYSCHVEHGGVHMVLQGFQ
Chain of MR1 (Q95460 23-341): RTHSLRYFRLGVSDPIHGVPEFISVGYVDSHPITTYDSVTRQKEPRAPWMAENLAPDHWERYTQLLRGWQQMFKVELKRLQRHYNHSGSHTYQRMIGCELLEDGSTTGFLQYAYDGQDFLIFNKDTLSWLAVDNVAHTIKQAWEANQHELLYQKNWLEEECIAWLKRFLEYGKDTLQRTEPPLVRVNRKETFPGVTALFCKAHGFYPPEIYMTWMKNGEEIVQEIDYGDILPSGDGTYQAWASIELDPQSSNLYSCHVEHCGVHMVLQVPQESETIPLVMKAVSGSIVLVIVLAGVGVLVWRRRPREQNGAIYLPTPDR
Chain of MR1 (P61769 21-119 partner): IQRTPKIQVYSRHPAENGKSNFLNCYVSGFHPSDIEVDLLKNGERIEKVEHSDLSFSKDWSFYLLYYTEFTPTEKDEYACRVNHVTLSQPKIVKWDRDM

| SMILES | presence among ligands eluted from hpMR1 preparations (hpMR1) | binding to MR1 / MR1 ligand (MR1) | ability to stimulate MR1T clones (MR1T cell activation) (MR1T clones) | response of clone D481_C7 (MR1T clone D481_C7) | recognition by D481_F12 and D481_A9 MR1T cell clones [3] | response of D462_E4 TRAV12-2 MR1T cell clone [4] | other results |
| --- | --- | --- | --- | --- | --- | --- | --- |
| O=CC=Nc1c(NC[C@H](O)[C@H](O)[C@H](O)CO)[nH]c(=O)[nH]c1=O [5-OE-RU, 5-(2-oxoethylideneamino)-6-D-ribitylaminouracil] | not found in these hpMR1 preparations | – | – | – | – | – | – |
| Nc1nc2ncc(C=O)nc2c(=O)[nH]1 [6-FP] | – | – | – | – | – | – | antagonism of MR1T activation (MR1T cell clone D426 G11 [1]): antagonizes MR1T activation |
| Cc1cc2c(=O)[nH]c(=O)[nH]c2nc1C [DZ, 6,7-dimethyl-5-deazalumazine] | – | binds MR1 | activates MR1 restricted T cells | – | – | – | – |
| O=c1nc2n(C[C@H](O)[C@H](O)[C@H](O)CO)c3cc(O)ccc3cc-2c(=O)[nH]1 [FO] | – | binds MR1; also recorded: confirmed these molecules as novel MR1 ligands | Neither riboflavin nor FO was capable of MR1T cell activation | – | – | – | blocking of MR1T clone response to Msm-sup (MAIT cell activation) (MR1T cell clone D426 G11 [2]): blocks the activation of MAIT cells; also recorded: blocked the MR1T clone response to Msm-sup; antagonist potency relative to riboflavin (amount required to reach 50% inhibition) (MR1T cell clone D426 G11 [2]; pre-incubation of APC, response to Msm-sup): less FO was required to reach 50% inhibition |
| O=c1nc2n(C[C@H](O)[C@H](O)[C@H](O)CO)c(O)c(-c3c[nH]c4ccccc34)nc-2c(=O)[nH]1 [PLIII] | – | confirmed these molecules as novel MR1 ligands | antigenic | responded | modest or no recognition | comparable responses to RL-6-Me-7-OH and PLI that were greater than PLIII | binding to MR1 / MR1 ligand (MR1; listed as Photolumazine III): bind MR1; ability to stimulate MR1T clones (MR1T cell activation) (MR1T clones; listed as Photolumazine III): activated MR1 restricted T cells; IFN-γ response of clone D481_C7 (MR1T clone D481_C7): potent activating ligands similar to RL-6,7-diMe; IFN-γ response of clone D426_G11 (MR1T clone D426_G11): only modest responses |
| O=C(O)CCc1nc2c(=O)[nH]c(=O)nc-2n(C[C@H](O)[C@H](O)[C@H](O)CO)c1O [PLI] | unique to hpMR1+MS | confirmed these molecules as novel MR1 ligands | antigenic | responded | modest or no recognition | comparable responses to RL-6-Me-7-OH and PLI that were greater than PLIII | binding to MR1 / MR1 ligand (MR1; listed as Photolumazine I): bind MR1; ability to stimulate MR1T clones (MR1T cell activation) (MR1T clones; listed as Photolumazine I): activated MR1 restricted T cells; IFN-γ response of clone D481_C7 (MR1T clone D481_C7): potent activating ligands similar to RL-6,7-diMe; IFN-γ response of clone D426_G11 (MR1T clone D426_G11): only modest responses |
| Cc1nc2c(=O)[nH]c(=O)nc-2n(C[C@H](O)[C@H](O)[C@H](O)CO)c1C [RL-6,7-diMe, reference compound] | not found in these hpMR1 preparations | – | – | responded | responded | did not respond | – |
| Cc1nc2c(=O)[nH]c(=O)nc-2n(C[C@H](O)[C@H](O)[C@H](O)CO)c1O [RL-6-Me-7-OH, reference compound] | – | – | – | responded | modest or no recognition | comparable responses to RL-6-Me-7-OH and PLI that were greater than PLIII | – |
| Cc1cc2nc3c(=O)[nH]c(=O)nc-3n(C[C@H](O)[C@H](O)[C@H](O)CO)c2cc1C [riboflavin, reference compound] | – | confirmed these molecules as novel MR1 ligands | Neither riboflavin nor FO was capable of MR1T cell activation | – | – | – | blocking of MR1T clone response to Msm-sup (MAIT cell activation) (MR1T cell clone D426 G11 [2]): blocked the MR1T clone response to Msm-sup |
